Assay results reported in patent publication US20230265151A1, “GIP/GLP1 CO-AGONIST COMPOUNDS” (priority 2020, published 2023).
Like-named read-outs stand apart in the source and are kept apart here. *1 amine or outer side, *2 acyl side, *3 side chain or, on linkers, in order; H or OH if unused. Where a SMILES comes first, the peptide text is derived from it. Side-chain parts run from the residue outwards. [ ]: non-standard residue; d: D form. The star is where a group is joined. αMePhe(2-F) = C[C@](N)(Cc1ccccc1F)C(=O)O; γGlu = O=C(O)[C@H](CCC(=O)[*:2])N[*:1]; αMeY = C[C@](N)(Cc1ccc(O)cc1)C(=O)O; αMeF = C[C@](N)(Cc1ccccc1)C(=O)O; αMeL = CC(C)C[C@](C)(N)C(=O)O; Lauroyl = CCCCCCCCCCCC(=O)*; Orn = NCCC[C@H](N)C(=O)O; AEEA = NCCOCCOCC(=O)O; Aib = CC(C)(N)C(=O)O

Key:
[1] = molecular target: T1, human GLP-1 receptor (hGLP-1R) (Homo sapiens, UniProt P43220); assay: [125I]-GLP-1 binding, SPA with membranes of HEK293 cells expressing hGLP-1R; conditions: human GLP-1R; geometric mean (SEM, n); read-out: Binding Affinity Ki, nM (SEM, n) hGLP-1R
T1 construct: expressed in transfected cells; crude membranes

[2] = molecular target: T2, human GIP receptor (hGIPR) (Homo sapiens, UniProt P48546); assay: [125I]-GIP binding, SPA with membranes of CHO cells expressing hGIPR; conditions: human GIPR; geometric mean (SEM, n); read-out: Binding Affinity Ki, nM (SEM, n) hGIPR
T2 construct: expressed in transfected cells; crude membranes
T2 sequence (P48546 22-466): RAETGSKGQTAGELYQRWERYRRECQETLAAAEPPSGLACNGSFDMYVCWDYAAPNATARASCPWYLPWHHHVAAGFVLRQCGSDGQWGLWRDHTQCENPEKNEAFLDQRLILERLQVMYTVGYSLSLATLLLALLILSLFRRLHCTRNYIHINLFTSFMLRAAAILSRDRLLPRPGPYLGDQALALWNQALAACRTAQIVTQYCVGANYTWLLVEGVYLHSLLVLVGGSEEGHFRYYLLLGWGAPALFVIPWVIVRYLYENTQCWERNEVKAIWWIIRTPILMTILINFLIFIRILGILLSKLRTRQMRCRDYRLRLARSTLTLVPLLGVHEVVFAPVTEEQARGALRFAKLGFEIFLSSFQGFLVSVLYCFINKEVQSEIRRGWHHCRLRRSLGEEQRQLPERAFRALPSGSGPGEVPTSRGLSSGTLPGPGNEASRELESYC

hGIPR = molecular target: T3, hGIPR (Homo sapiens, UniProt P48546); assay: Functional cAMP formation (HTRF) in HEK-293 clonal cells expressing hGIPR, 0.1% bovine casein, without or with 1.0% human serum albumin; format: cell-based; conditions: 37° C.; for Emax: percent of maximal response to GIP(1-42)NH2, read-out: hGIPR Emax, % ± SEM; for EC50: cAMP, 0.1% bovine casein (no human serum albumin), geometric mean, read-out: hGIPR EC50, nM (SEM, n)
T3 construct: expressed in transfected cells
T3 sequence (P48546 22-466): T2 sequence (P48546 22-466)
In short: (§1)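 Cells were stimulated with peptide for 30 min at 37° C, then lysed in buffer carrying cAMP-d2 and anti-cAMP Eu3+-cryptate for a competitive HTRF read after at least 60 min at room temperature. The 665/620 nm ratio was converted to nM cAMP against a standard curve.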

hGCGR = molecular target: T4, hGCGR (Homo sapiens, UniProt P47871); assay: Functional cAMP formation (HTRF) in HEK-293 clonal cells expressing hGCGR, 0.1% bovine casein, without or with 1.0% human serum albumin; format: cell-based; conditions: read-out: hGCGR EC50, nM (SEM, n)
T4 construct: expressed in transfected cells
In short: as §1

hGLP-1R = hGLP-1R (Homo sapiens, UniProt P43220); assay: Functional cAMP formation (HTRF) in HEK-293 clonal cells expressing hGLP-1R, 0.1% bovine casein, without or with 1.0% human serum albumin; format: cell-based; set-up: expressed in transfected cells; conditions: for EC50: read-out: hGLP-1R EC50, nM (SEM, n)
In short: as §1

[3] = HEK293, cAMP, 0.1% bovine casein and 1.0% human serum albumin
[4] = cAMP, 37° C., 0.1% bovine casein (no human serum albumin), geometric mean
[5] = cAMP, 37° C., 0.1% bovine casein and 1.0% human serum albumin, geometric mean (SEM, n)
[6] = HEK293, 0.1% bovine casein and 1.0% human serum albumin
[7] = 0.1% bovine casein and 1.0% human serum albumin, 37° C., geometric mean
[8] = cAMP, incubated at 37° C., 0.1% bovine casein (no human serum albumin), geometric mean

T4 sequence (P47871 26-477): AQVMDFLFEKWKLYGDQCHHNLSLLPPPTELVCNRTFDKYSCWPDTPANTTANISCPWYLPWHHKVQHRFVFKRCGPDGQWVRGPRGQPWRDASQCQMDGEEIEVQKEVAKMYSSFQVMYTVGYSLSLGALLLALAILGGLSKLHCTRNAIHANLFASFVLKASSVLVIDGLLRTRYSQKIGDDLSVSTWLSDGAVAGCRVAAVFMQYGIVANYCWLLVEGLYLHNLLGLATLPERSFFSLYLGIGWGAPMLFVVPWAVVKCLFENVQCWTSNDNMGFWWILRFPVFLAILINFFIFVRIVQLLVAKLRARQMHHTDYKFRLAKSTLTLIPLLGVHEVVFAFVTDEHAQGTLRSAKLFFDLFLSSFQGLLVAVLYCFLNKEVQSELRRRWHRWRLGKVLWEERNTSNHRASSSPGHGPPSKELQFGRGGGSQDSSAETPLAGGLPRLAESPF
Sequence of hGLP-1R (P43220 24-463): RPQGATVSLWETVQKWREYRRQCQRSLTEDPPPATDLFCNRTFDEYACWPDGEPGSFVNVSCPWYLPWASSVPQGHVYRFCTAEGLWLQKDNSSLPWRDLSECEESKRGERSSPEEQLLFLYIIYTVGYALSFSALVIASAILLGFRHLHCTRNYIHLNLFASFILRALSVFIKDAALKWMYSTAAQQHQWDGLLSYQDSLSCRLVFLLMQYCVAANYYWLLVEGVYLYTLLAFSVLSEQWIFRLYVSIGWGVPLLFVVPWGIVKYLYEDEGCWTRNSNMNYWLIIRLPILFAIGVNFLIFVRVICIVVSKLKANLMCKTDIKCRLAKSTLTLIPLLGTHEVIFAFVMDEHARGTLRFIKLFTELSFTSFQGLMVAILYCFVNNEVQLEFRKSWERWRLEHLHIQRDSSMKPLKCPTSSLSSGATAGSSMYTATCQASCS
T1 sequence (P43220 24-463): as above

Row | SMILES | Ki [1] [nM] | Ki [2] [nM] | Emax (hGIPR; [3]) [%] | Emax (hGIPR; HEK293, cAMP, 0.1% bovine casein, arithmetic mean) [%] | EC50 (hGIPR) [nM] | EC50 (hGCGR; [4]) [nM] | EC50 (hGCGR; [5]) [nM] | EC50 (hGLP-1R; [4]) [nM] | EC50 (hGLP-1R; [5]) [nM] | Emax (hGIPR; [6]) [%] | EC50 (hGCGR; [7]) [nM] | EC50 (hGCGR; [8]) [nM] | EC50 (hGLP-1R; [7]) [nM] | EC50 (hGLP-1R; [8]) [nM] | Emax (hGLP-1R; HEK293, 0.1% bovine casein and 1.0% human serum albumin, 37° C., percent of maximal response to GLP-1(7-36)NH2, read-out: hGLP-1R Emax, % ± SEM) [%]
1 | CC[C@H](C)[C@H](NC(=O)[C@H](CC(C)C)NC(=O)[C@](C)(Cc1ccc(O)cc1)NC(=O)[C@H](CCCCNC(=O)COCCOCCNC(=O)CC[C@H](NC(=O)CC[C@H](NC(=O)CC[C@H](NC(=O)CCCCCCCCCCCCC(=O)O)C(=O)O)C(=O)O)C(=O)O)NC(=O)[C@@H](NC(=O)[C@H](Cc1ccccc1)NC(=O)[C@H](CCCN)NC(=O)C(C)(C)NC(=O)[C@H](CCC(N)=O)NC(=O)[C@H](C)NC(=O)[C@H](CCC(N)=O)NC(=O)[C@H](CCCN)NC(=O)[C@H](CC(=O)O)NC(=O)[C@H](CC(C)C)NC(=O)[C@](C)(CC(C)C)NC(=O)[C@@H](NC(=O)C(C)(C)NC(=O)[C@H](Cc1ccncc1)NC(=O)[C@H](CC(=O)O)NC(=O)[C@H](CO)NC(=O)[C@@H](NC(=O)[C@](C)(Cc1ccccc1F)NC(=O)[C@@H](NC(=O)CNC(=O)[C@H](CCC(=O)O)NC(=O)C(C)(C)NC(=O)[C@@H](N)Cc1ccc(O)cc1)[C@@H](C)O)[C@@H](C)O)[C@@H](C)CC)[C@@H](C)CC)C(=O)N[C@@H](CCCCNC(=O)COCCOCCNC(=O)CC[C@H](NC(=O)CC[C@H](NC(=O)CC[C@H](NC(=O)CCCCCCCCCCCCC(=O)O)C(=O)O)C(=O)O)C(=O)O)C(=O)NCC(=O)NCC(=O)N1CCC[C@H]1C(=O)N[C@@H](CO)C(=O)N[C@@H](CO)C(=O)NCC(=O)N[C@@H](C)C(=O)N1CCC[C@H]1C(=O)N1CCC[C@H]1C(=O)N1CCC[C@H]1C(=O)N[C@@H](CO)C(N)=O [Example 486] | 0.299 | 0.046 | 88.2 | 94.1 | 0.0143 | > 9950 | > 9950 | 0.166 | – | – | – | – | – | – | –
2 | CCCCCCCCCCCC(=O)N[C@@H](CCC(=O)NCCOCCOCC(=O)NCCOCCOCC(=O)NCCOCCOCC(=O)NCCCC[C@H](NC(=O)[C@H](CCCN)NC(=O)[C@H](CC(=O)O)NC(=O)[C@H](CC(C)C)NC(=O)[C@](C)(CC(C)C)NC(=O)[C@@H](NC(=O)C(C)(C)NC(=O)[C@H](CCCCNC(=O)COCCOCCNC(=O)COCCOCCNC(=O)COCCOCCNC(=O)CC[C@H](NC(=O)CCCCCCCCCCC)C(=O)O)NC(=O)[C@H](CC(=O)O)NC(=O)[C@H](CO)NC(=O)[C@@H](NC(=O)[C@](C)(Cc1ccccc1F)NC(=O)[C@@H](NC(=O)CNC(=O)[C@H](CCC(=O)O)NC(=O)C(C)(C)NC(=O)[C@@H](N)Cc1ccc(O)cc1)[C@@H](C)O)[C@@H](C)O)[C@@H](C)CC)C(=O)N[C@@H](C)C(=O)N[C@@H](CCC(N)=O)C(=O)NC(C)(C)C(=O)N[C@@H](CCCN)C(=O)N[C@@H](Cc1ccccc1)C(=O)N[C@H](C(=O)N[C@H](CCC(=O)O)C(=O)N[C@@](C)(Cc1ccc(O)cc1)C(=O)N[C@@H](CC(C)C)C(=O)N[C@H](C(=O)N[C@@H](CCC(=O)O)C(=O)NCC(=O)NCC(=O)N1CCC[C@H]1C(=O)N[C@@H](CO)C(=O)N[C@@H](CO)C(=O)NCC(=O)N[C@@H](C)C(=O)N1CCC[C@H]1C(=O)N1CCC[C@H]1C(=O)N1CCC[C@H]1C(=O)N[C@@H](CO)C(N)=O)[C@@H](C)CC)[C@@H](C)CC)C(=O)O [Example 432] | 0.134 | 0.0134 | 96.7 | – | 0.00602 | > 9950 | > 9950 | 0.0549 | 1.28 | – | – | – | – | – | –
3 | CCCCCCCCCCCCCCCC(=O)N[C@@H](CCC(=O)NCCOCCOCC(=O)NCCOCCOCC(=O)NCCCC[C@H](NC(=O)[C@H](CCCN)NC(=O)[C@H](CC(=O)O)NC(=O)[C@H](CC(C)C)NC(=O)[C@](C)(CC(C)C)NC(=O)[C@@H](NC(=O)[C@H](CO)NC(=O)[C@H](Cc1ccncc1)NC(=O)[C@H](CC(=O)O)NC(=O)[C@H](CO)NC(=O)[C@@H](NC(=O)[C@](C)(Cc1ccccc1F)NC(=O)[C@@H](NC(=O)CNC(=O)[C@H](CCC(=O)O)NC(=O)C(C)(C)NC(=O)[C@@H](N)Cc1ccc(O)cc1)[C@@H](C)O)[C@@H](C)O)[C@@H](C)CC)C(=O)N[C@@H](C)C(=O)N[C@@H](CCC(N)=O)C(=O)NC(C)(C)C(=O)N[C@@H](CCC(=O)O)C(=O)N[C@@H](Cc1ccccc1)C(=O)N[C@H](C(=O)N[C@H](CCC(=O)O)C(=O)N[C@@](C)(Cc1ccc(O)cc1)C(=O)N[C@@H](CC(C)C)C(=O)N[C@H](C(=O)N[C@@H](CCC(=O)O)C(=O)NCC(=O)N[C@@H](CCCCNC(=O)COCCOCCNC(=O)COCCOCCNC(=O)CC[C@H](NC(=O)CCCCCCCCCCCCCCC)C(=O)O)C(=O)N1CCC[C@H]1C(=O)N[C@@H](CO)C(=O)N[C@@H](CO)C(=O)NCC(=O)N[C@@H](C)C(=O)N1CCC[C@H]1C(=O)N1CCC[C@H]1C(=O)N1CCC[C@H]1C(=O)N[C@@H](CO)C(N)=O)[C@@H](C)CC)[C@@H](C)CC)C(=O)O [Example 24] | 0.52 | 0.0361 | – | – | – | – | – | – | – | 92.4 ± 5.97 | > 9950 | > 9950 | 2.04 | 0.0063 | –
4 | CCCCCCCCCCCC(=O)N[C@@H](CCC(=O)NCCOCCOCC(=O)NCCOCCOCC(=O)NCCCC[C@H](NC(=O)[C@H](CCCN)NC(=O)[C@H](CC(=O)O)NC(=O)[C@H](CC(C)C)NC(=O)[C@](C)(CC(C)C)NC(=O)[C@@H](NC(=O)[C@H](CO)NC(=O)[C@H](CCCCNC(=O)COCCOCCNC(=O)COCCOCCNC(=O)CC[C@H](NC(=O)CCCCCCCCCCC)C(=O)O)NC(=O)[C@H](CC(=O)O)NC(=O)[C@H](CO)NC(=O)[C@@H](NC(=O)[C@](C)(Cc1ccccc1F)NC(=O)[C@@H](NC(=O)CNC(=O)[C@H](CCC(=O)O)NC(=O)C(C)(C)NC(=O)[C@@H](N)Cc1ccc(O)cc1)[C@@H](C)O)[C@@H](C)O)[C@@H](C)CC)C(=O)N[C@@H](C)C(=O)N[C@@H](CCC(N)=O)C(=O)NC(C)(C)C(=O)N[C@@H](CCC(=O)O)C(=O)N[C@@](C)(Cc1ccccc1)C(=O)N[C@H](C(=O)N[C@H](CCC(=O)O)C(=O)N[C@@](C)(Cc1ccc(O)cc1)C(=O)N[C@@H](CC(C)C)C(=O)N[C@H](C(=O)N[C@@H](CCC(=O)O)C(=O)NCC(=O)NCC(=O)N1CCC[C@H]1C(=O)N[C@@H](CO)C(=O)N[C@@H](CO)C(=O)NCC(=O)N[C@@H](C)C(=O)N1CCC[C@H]1C(=O)N1CCC[C@H]1C(=O)N1CCC[C@H]1C(=O)N[C@@H](CO)C(N)=O)[C@@H](C)CC)[C@@H](C)CC)C(=O)O [Example 293] (H-Y[Aib]EGT[αMePhe(2-F)]TSDK([AEEA-AEEA-γGlu-Lauroyl])SI[αMeL]LD[Orn]K([AEEA-AEEA-γGlu-Lauroyl])AQ[Aib]E[αMeF]I[dE][αMeY]LIEGGPSSGAPPPS-NH2) | 0.211 | 0.022 | – | – | 0.00915 | > 9950 | – | 0.102 | – | 96.6 | > 9950 | – | – | – | 99.4
